Several values for one entry are separate records, joined by “and”; a condition that tells them apart may be missing. Identical values can stand only once.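 Briefly, cells in 96-well plates were exposed to five compound concentrations for 48 h, and endpoints were estimated by linear interpolation. Abbreviation: GI50, concentration required for 50% inhibition of growth. TGI marks complete inhibition of growth.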

What all share (test): NCI-60 cell line screen, 48 h
In assay [1] the test system is HOP-92 NSCLC.
Assay [2] has as its system RXF 393 renal.
The subject of assay [3] is RPMI-8226 leukemia.
For assay [4], the system named is PC-3 prostate.
Assay [5] has as its system K-562 leukemia.
The subject of assay [6] is SR leukemia.
Assay [7] concerns LOX IMVI melanoma.
The subject of assay [8] is UACC-62 melanoma.
Assay [9] has as its system SK-OV-3 ovarian.
In assay [10] the test system is OVCAR-4 ovarian.

`NC(N)=N/N=C/c1ccc(-c2ccc(-c3cc(Cl)cc(Cl)c3)s2)cc1`: the GI50 is 1.41 µM in assay [1]; 1.67 µM in assay [2]; 1.78 µM in assay [3]; 1.58 µM in assay [4]; 0.431 µM in assay [5]; 0.326 µM in assay [6]. Further, the GI50 is 1.65 µM in assay [7], 1.85 µM in [8], 2 µM in assay [9] and 1.9 µM in assay [10]. Besides, the TGI in [1] was 3.13 µM; in assay [2] it was 3.37 µM; in [3], 4.49 µM; in assay [4] it was 3.16 µM; in assay [5], 1.79 µM; in assay [6], 1.73 µM. For the same molecule, the TGI in assay [7] came to 3.42 µM; in assay [8], 3.72 µM; in [9], 4.08 µM; in [10], 3.77 µM.

For the molecule `Cc1c(O)c2c(c(O)c1Br)C(=O)C=CC2=O`, the GI50 in [1] was 0.27 µM; in assay [2] it was 0.229 µM; in assay [3] it was 0.138 µM; in assay [4], 1.9 µM; in [5] it was 0.0599 µM; in assay [7], 0.215 µM. Also, the results for the GI50 in assay [8], in assay [9] and in [10] were 1.44 µM, 14.1 µM and 1.03 µM, respectively. For the same molecule, the TGI in assay [1] was 1.48 µM and 0.887 µM; in [2], 2.72 µM and 0.582 µM; in assay [3], 1.01 µM and 0.436 µM; in assay [4] it was 3.19 µM and 5.15 µM; in assay [5], 0.66 µM and 0.334 µM; in assay [6] it was 0.73 µM. Also, the TGI was 1.54 µM and 0.703 µM in [7]; 2.1 µM and 3.21 µM in [8]; 3.93 µM and 27.1 µM in assay [9]; 2.23 µM in assay [10].

Consider `Cn1c(NCC(O)CN2CCCC2)cc(=O)n(C)c1=O` (centres undefined), for which the GI50 in assay [1], in assay [2], in [3], in [4], in [5] and in [6] was above 100 µM in each case. Moreover, the GI50 in [7], in assay [8], in assay [9] and in assay [10] was above 100 µM throughout. Further, the TGI in assay [1], in [2], in assay [3], in [4], in [5] and in assay [6] was above 100 µM each time. Besides, the TGI in [7], in [8], in assay [9] and in [10] was above 100 µM throughout.

With `O=C(O)c1ccc(C(=O)O)c(C(=O)Nc2ccc3c(c2)C(=O)c2ccccc2-3)c1`, the TGI in [1], in assay [2], in [3], in assay [4], in assay [5] and in assay [6] was above 100 µM in each case. Further, the TGI in assay [7], in assay [8], in assay [9] and in [10] was above 100 µM in each case.

For the molecule `O=C(Nc1ccc(/C=C/c2ccc(NC(=O)c3cc(S(=O)(=O)O)c4cccnc4c3O)cc2S(=O)(=O)O)c(S(=O)(=O)O)c1)c1cc(S(=O)(=O)O)c2cccnc2c1O`, the GI50 in assay [1] was 28.5 µM; in assay [2] it was 20.9 µM; in assay [3], 27 µM; in assay [4], 32.2 µM; in [5], 12 µM; in [6] it was 0.0205 µM. Besides, the GI50 is 3.07 µM in [7], 2.5 µM in assay [8], above 38.9 µM in [9] and above 54.4 µM in [10]. The TGI in assay [1] was 89.4 µM; in assay [2] it was above 53.6 µM; in [3], above 65.2 µM; in assay [4], above 78.3 µM; in [5] it was above 75.2 µM; in assay [6] it was 0.17 µM. The TGI was above 28 µM in assay [7], 37.6 µM in [8], above 100 µM in [9] and above 75.2 µM in assay [10].

Regarding `COc1cc2c(cc1Nc1nc(Nc3cccc(F)c3C(N)=O)c3cc[nH]c3n1)N(C(=O)CN1CCN(C(C)C)CC1)CC2`, the GI50 was 0.374 µM in assay [1]; 2.3 µM in assay [2]; 4.58 µM in assay [3]; 5.12 µM in assay [4]; 4.67 µM in assay [5]; 1.19 µM in assay [6]. Moreover, the GI50 in [7] was 3.49 µM; in assay [8], 3.9 µM; in [9] it was 3.85 µM; in assay [10] it was 3.88 µM. For the same molecule, the TGI was determined as 3.13 µM in assay [1]; 5.77 µM in assay [2]; 10.9 µM in assay [3]; 13.5 µM in [4]; 11 µM in assay [5]; 15.2 µM in assay [6]. Besides, the TGI in [7] was 7.03 µM; in assay [8] it was 7.74 µM; in assay [9], 7.26 µM; in assay [10], 7.94 µM.
